In the experiment the test system is OVCAR-5. Description: Antiproliferative activity against human OVCAR-5 cells assessed as cell growth inhibition at 10 uM incubated for 24 hrs by sulforhodamine B assay. In kind it is functional. As to conditions: read-out: GI. (The SRB assay estimates cell density from bound dye.)

The results in this text go back to ChEMBL document CHEMBL5038625, “Application of the dual-tail approach for the design and synthesis of novel Thiopyrimidine-Benzenesulfonamide hybrids as selective carbonic anhydrase inhibitors” (Eur J Med Chem, 2022).

As to `COc1ccc(OC)c(-c2nc(SCC(=O)c3ccc(Br)cc3)nc(Nc3ccc(S(N)(=O)=O)cc3)c2C#N)c1`, the inhibition of growth at 10 µM is 26.7%.
